These compounds were tested against full-length recombinant human FYN A (Homo sapiens (Human), UniProt P06241) (assay: ADP-Glo Kinase Assay of FYN kinase inhibition). Details: primary screen, initial compounds.
Assay type: biochemical
Outline: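 ADP-Glo read-out of peptide phosphorylation after 90 min RT with 12.5 pmol ATP and 100 pg 12-mer substrate. Enzyme was N-GST full-length human FYN A from insect cells, 3 pg, pre-incubated 30 min with compound, 10 points from 10 μM top, 3-fold steps; IC50 from curve.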

Chain of full-length recombinant human FYN A (P06241 whole entry): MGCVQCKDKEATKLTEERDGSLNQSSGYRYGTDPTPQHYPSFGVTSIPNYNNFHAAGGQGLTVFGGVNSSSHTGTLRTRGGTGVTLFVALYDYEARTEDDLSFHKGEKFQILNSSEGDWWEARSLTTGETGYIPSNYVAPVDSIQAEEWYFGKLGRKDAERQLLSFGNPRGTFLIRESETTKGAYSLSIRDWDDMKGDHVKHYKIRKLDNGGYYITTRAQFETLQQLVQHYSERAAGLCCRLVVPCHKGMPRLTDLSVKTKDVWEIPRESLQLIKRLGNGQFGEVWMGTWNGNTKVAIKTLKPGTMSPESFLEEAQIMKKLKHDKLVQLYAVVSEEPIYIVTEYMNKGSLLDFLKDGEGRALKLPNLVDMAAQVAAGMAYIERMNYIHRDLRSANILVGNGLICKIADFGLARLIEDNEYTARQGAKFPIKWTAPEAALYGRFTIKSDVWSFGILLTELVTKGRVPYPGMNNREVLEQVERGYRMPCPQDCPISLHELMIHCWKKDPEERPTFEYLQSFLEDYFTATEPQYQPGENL

`Nc1cccc(-c2ccnc3[nH]nc(-c4ccncc4)c23)c1` [Compound 496, 3-[3-(4-pyridyl)-1H-pyrazolo[3,4-b]pyridin-4-yl]aniline] and `Nc1cccc(-c2ccnc3[nH]nc(-c4cccc(F)c4)c23)c1` [Compound 535, 3-[3-(3-fluorophenyl)-1H-pyrazolo[3,4-b]pyridin-4-yl]aniline] are within 1.5-fold of each other in IC50: 18 µM for the first, 15.1 µM for the second.

Going from `OCc1ccc(-c2ccnc3[nH]nc(-c4cccc(F)c4)c23)cc1` [Compound 497] to `OCc1ccc(-c2ccnc3[nH]nc(-c4cccc(Cl)c4)c23)cc1` [Compound 526, [4-[3-(3-chlorophenyl)-1H-pyrazolo[3,4-b]pyridin-4-yl]phenyl] methanol], the IC50 rises from 3.88 µM to 6.5 µM (1.7-fold).

Going from `COc1ccccc1-c1n[nH]c2nccc(-c3ccsc3)c12` [Compound 498, 3-(2-methoxyphenyl)-4-(3-thienyl)-1H-pyrazolo[3,4-b]pyridine] to `COc1ccccc1-c1n[nH]c2nccc(-c3ccoc3)c12` [Compound 516, 4-(3-furyl)-3-(2-methoxyphenyl)-1H-pyrazolo[3,4-b]pyridine], the IC50 rises from 2.67 µM to 4.9 µM (1.8-fold).

First: COc1cc(-c2n[nH]c3nccc(-c4ccc(NC(C)=O)cc4)c23)cc(OC)c1OC [Compound 499, N-[4-[3-(3,4,5-trimethoxy-phenyl)-1H-pyrazolo[3,4-b]pyridin-4-yl]phenyl] acetamide]
Second: COc1cc(-c2n[nH]c3nccc(-c4ccc(CO)cc4)c23)cc(OC)c1OC [Compound 519, [4-[3-(3,4,5-trimethoxy-phenyl)-1H-pyrazolo[3,4-b]pyridin-4-yl]phenyl] methanol]
The IC50 of the first is 2.7-fold lower: 2.02 µM for the first, 5.38 µM for the second.

`COc1ccccc1-c1n[nH]c2nccc(/C=C/c3ccccc3)c12` [Compound 500, 3-(2-methoxyphenyl)-4-[(E)-styryl]-1H-pyrazolo[3,4-b]pyridine] and `COc1ccccc1-c1n[nH]c2nccc(-c3cccc(F)c3)c12` [Compound 501, 4-(3-fluorophenyl)-3-[2-methoxy-phenyl)-1H-pyrazolo[3,4-b]pyridine] are within 1.5-fold of each other in IC50: 1.13 µM for the first, 1.35 µM for the second.

`COc1ccccc1-c1n[nH]c2nccc(-c3ccc(C(N)=O)cc3)c12` [Compound 502, 4-[3-(2-methoxyphenyl)-1H-pyrazolo[3,4-b]pyridin-4-yl]benzamide] and `COc1ccccc1-c1n[nH]c2nccc(-c3ccc(CO)cc3)c12` [Compound 532, [4-[3-(2-methoxyphenyl)-1H-pyrazolo[3,4-b]pyridin-4-yl]phenyl] methanol] are within 1.5-fold of each other in IC50: 1.48 µM for the first, 1.1 µM for the second.

First: OCc1ccc(-c2ccnc3[nH]nc(-c4ccccc4)c23)cc1 [Compound 503, [4-(3-phenyl-1H-pyrazolo[3,4-b]pyridin-4-yl)phenyl] methanol]
Second: NC(=O)c1cccc(-c2ccnc3[nH]nc(-c4ccccc4)c23)c1 [Compound 536, 3-(3-phenyl-1H-pyrazolo[3,4-b]pyridin-4-yl)benzamide]
The IC50 of the first is 1.6-fold lower: 7.11 µM for the first, 11.7 µM for the second.

Going from `c1ccc(-c2n[nH]c3nccc(-c4cn[nH]c4)c23)cc1` [Compound 504, 3-phenyl-4-(1H-pyrazol-4-yl)-1H-pyrazolo[3,4-b]pyridine] to `c1ccc(-c2n[nH]c3nccc(-c4ccoc4)c23)cc1` [Compound 528, 4-(3-furyl)-3-phenyl-1H-pyrazolo[3,4-b]pyridine], the IC50 rises from 0.852 µM to 8.63 µM (10-fold).

Compared with `COc1cc(-c2n[nH]c3nccc(-c4ccc(C(C)C)cc4)c23)cc(OC)c1OC` [Compound 505, 4-(4-isopropylphenyl)-3-(3,4,5-trimethoxy-phenyl)-1H-pyrazolo[3,4-b]pyridine], `COc1cc(-c2n[nH]c3nccc(-c4ccc(S(C)(=O)=O)cc4)c23)cc(OC)c1OC` [Compound 525, 4-(4-methylsulfonyl-phenyl)-3-(3,4,5-trimethoxy-phenyl)-1H-pyrazolo[3,4-b]pyridlne] is 1.9-fold lower in IC50: 20.9 µM for the first, 11.2 µM for the second.

Going from `Clc1cccc(-c2ccnc3[nH]nc(C4CC4)c23)c1` [Compound 506, 4-(3-chlorophenyl)-3-cyclopropyl-1H-pyrazolo[3,4-b]pyridine] to `COc1cccc(-c2ccnc3[nH]nc(C4CCNCC4)c23)c1` [Compound 520, 4-(3-methoxyphenyl)-3-(4-piperidyl)-1H-pyrazolo[3,4-b]pyridine], the IC50 falls from 30 µM to 17.6 µM (1.7-fold).

`COc1ccccc1-c1n[nH]c2nccc(-c3cccc(C(=O)NCCN(C)C)c3)c12` [Compound 507, N-(2-dimethylamino-ethyl)-3-[3-(2-methoxyphenyl)-1H-pyrazolo[3,4-b]pyridin-4-yl]benzamide] and `COc1ccccc1-c1n[nH]c2nccc(-c3cccc(C(C)=O)c3)c12` [Compound 533, 1-[3-[3-(2-methoxyphenyl)-1H-pyrazolo[3,4-b]pyridin-4-yl]phenyl] ethanone] are within 1.5-fold of each other in IC50: 4.85 µM for the first, 6.6 µM for the second.

`COc1ccccc1-c1n[nH]c2nccc(-c3cccc(CO)c3)c12` [Compound 508, [3-[3-(2-methoxyphenyl)-1H-pyrazolo[3,4-b]pyridin-4-yl]phenyl] methanol] and `COc1ccccc1-c1n[nH]c2nccc(-c3ccc(C#N)cc3)c12` [Compound 521, 4-[3-(2-methoxyphenyl)-1H-pyrazolo[3,4-b]pyridin-4-yl]benzonitrile] are within 1.5-fold of each other in IC50: 1.67 µM for the first, 1.58 µM for the second.

Going from `NC(=O)c1ccc(-c2ccnc3[nH]nc(-c4cccc(F)c4)c23)cc1` [Compound 509, 4-[3-(3-fluorophenyl)-1H-pyrazolo[3,4-b]pyridin-4-yl]benzamide] to `NC(=O)c1ccc(-c2ccnc3[nH]nc(-c4ccc(Cl)cc4)c23)cc1` [Compound 510, 4-[3-(4-chlorophenyl)-1H-pyrazolo[3,4-b]pyridin-4-yl]benzamide], the IC50 rises from 2.05 µM to 5.71 µM (2.8-fold). The first is the more potent here.

Compared with `COc1cc(-c2n[nH]c3nccc(-c4cccc(O)c4)c23)cc(OC)c1OC` [Compound 511, 3-[3-(3,4,5-trimethoxy-phenyl)-1H-pyrazolo[3,4-b]pyridin-4-yl]phenol], `COc1cc(-c2n[nH]c3nccc(-c4cccc(N)c4)c23)cc(OC)c1OC` [Compound 537, 3-[3-(3,4,5-trimethoxy-phenyl)-1H-pyrazolo[3,4-b]pyridin-4-yl]aniline] is 2.9-fold higher in IC50: 5.03 µM for the first, 14.8 µM for the second. The first is the more potent here.

First: CC(=O)c1cccc(-c2ccnc3[nH]nc(C4CCNCC4)c23)c1 [Compound 512, 1-[3-[3-(4-piperidyl)-1H-pyrazolo[3,4-b]pyridin-4-yl]phenyl] ethanone]
Second: COc1cc(-c2ccnc3[nH]nc(C4CCNCC4)c23)ccc1O [Compound 514, 2-methoxy-4-[3-(4-piperidyl)-1H-pyrazolo[3,4-b]pyridin-4-yl]phenol]
The IC50 of the first is 1.7-fold higher: 19.7 µM for the first, 11.9 µM for the second.

`CC(=O)Nc1ccc(-c2ccnc3[nH]nc(-c4ccsc4)c23)cc1` [Compound 513, N-[4-[3-(3-thienyl)-1H-pyrazolo[3,4-b]pyridin-4-yl]phenyl] acetamide] and `OCc1ccc(-c2ccnc3[nH]nc(-c4ccc5c(c4)OCO5)c23)cc1` [Compound 523, [4-[3-(1,3-benzodioxol-5-yl)-1H-pyrazolo[3,4-b]pyridin-4-yl]phenyl] methanol] are within 1.5-fold of each other in IC50: 4.87 µM for the first, 4.64 µM for the second.

First: COc1cc(-c2n[nH]c3nccc(-c4cccc(NS(C)(=O)=O)c4)c23)cc(OC)c1OC [Compound 515, N-[3-[3-(3,4,5-trimethoxy-phenyl)-1H-pyrazolo[3,4-b]pyridin-4-yl]phenyl] methane-sulfonamide]
Second: COc1cc(-c2n[nH]c3nccc(-c4cccc(F)c4)c23)cc(OC)c1OC [Compound 538, 4-(3-fluorophenyl)-3-(3,4,5-trimethoxy-phenyl)-1H-pyrazolo[3,4-b]pyridine]
The IC50 of the first is 2.4-fold higher: 12.8 µM for the first, 5.23 µM for the second. The second is the more potent here.

First: Oc1cccc(-c2ccnc3[nH]nc(-c4ccc5c(c4)OCO5)c23)c1 [Compound 517, 3-[3-(1,3-benzodioxol-5-yl)-1H-pyrazolo[3,4-b]pyridin-4-yl]phenol]
Second: OCc1cccc(-c2ccnc3[nH]nc(-c4ccc5c(c4)OCO5)c23)c1 [Compound 527, [3-[3-(1,3-benzodioxol-5-yl)-1H-pyrazolo[3,4-b]pyridin-4-yl]phenyl] methanol]
The IC50 of the first is 2-fold higher: 6.25 µM for the first, 3.09 µM for the second. The second is the more potent here.

`c1cncc(-c2n[nH]c3nccc(-c4ccoc4)c23)c1` [Compound 518, 4-(3-furyl)-3-(3-pyridyl)-1H-pyrazolo[3,4-b]pyridine] and `c1cc(-c2n[nH]c3nccc(-c4ccoc4)c23)ccn1` [Compound 534, 4-(3-furyl)-3-(4-pyridyl)-1H-pyrazolo[3,4-b]pyridine] are within 1.5-fold of each other in IC50: 14.3 µM for the first, 20.2 µM for the second.

Compared with `COc1cc(-c2n[nH]c3nccc(-c4ccc(C(=O)N(C)C)cc4)c23)cc(OC)c1OC` [Compound 522, N,N-dimethyl-4-[3-(3,4,5-trimethoxy-phenyl)-1H-pyrazolo[3,4-b]pyridin-4-yl]benzamide], `COc1ccc(-c2ccnc3[nH]nc(-c4cc(OC)c(OC)c(OC)c4)c23)cn1` [Compound 529, 4-(6-methoxy-3-pyridyl)-3-(3,4,5-trimethoxy-phenyl)-1H-pyrazolo[3,4-b]pyridine] is 1.5-fold higher in IC50: 11.1 µM for the first, 16.9 µM for the second.

`COc1ccc(F)cc1-c1ccnc2[nH]nc(C3CCNCC3)c12` [Compound 524, 4-(5-fluoro-2-methoxy-phenyl)-3-(4-piperidyl)-1H-pyrazolo[3,4-b]pyridine] and `c1coc(-c2ccnc3[nH]nc(C4CC4)c23)c1` [Compound 530, 3-cyclopropyl-4-(2-furyl)-1H-pyrazolo[3,4-b]pyridine] are within 1.5-fold of each other in IC50: 11.7 µM for the first, 12.6 µM for the second.

`COc1ccccc1-c1n[nH]c2nccc(-c3ccco3)c12` [Compound 531, 4-(2-furyl)-3-(2-methoxyphenyl)-1H-pyrazolo[3,4-b]pyridine] and `O=C(O)/C=C/c1cccc(-c2cnn3ccc(NCc4cccnc4)nc23)c1` [Compound 539, (E)-3-[3-[5-(3-pyridylmethyl-amino)pyrazolo [1,5-a]pyrimidin-3-yl]phenyl]prop-2-enoic acid] are within 1.5-fold of each other in IC50: 2.28 µM for the first, 2.27 µM for the second.

Compared with `COc1cc(-c2cc(-c3cccc(C(N)=O)c3)cnc2N)cc(OC)c1OC` [Compound 540, 3-[6-amino-5-(3,4,5-trimethoxy-phenyl)-3-pyridyl] benzamide], `CC(=O)c1ccc(-c2cnc(N)c(-c3cccc(N(C)C)c3)c2)s1` [Compound 541, 1-[5-[6-amino-5-[3-(dimethyl-amino)phenyl]-3-pyridyl]-2-thienyl]ethanone] is 7.7-fold higher in IC50: 0.442 µM for the first, 3.42 µM for the second. The first is the more potent here.
